Here are results for 39 compounds from patent publication US7977322B2 (Vertex Pharmaceuticals Incorporated, priority 2004, dated 2011).

pEC50: −log10 of the molar value. A value given as a limit tells only on which side of the number the result lay.

The target of this experiment is T1, ΔF508-CFTR (Homo sapiens, UniProt P13569, DEL508-508).
T1 construct: expressed in transfected cells
Put plainly: Membrane potential optical (FRET/VIPR) assay, identification of correction compounds. The class given is cell-based. The settings on record: Table 3, assay not given; for Emax: read-out: % Activity / % Efficacy (relative efficacy). The gist of the method: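 NIH3T3 mouse fibroblasts stably expressing ΔF508-CFTR were exposed to compound for 16 h at 37° C in serum-free medium, then loaded with DiSBAC2(3)/CC2-DMPE. After addition of 10 μM forskolin plus 20 μM genistein in Cl⁻-free gluconate bath (pH 7.4), depolarization from Cl⁻ efflux was read by FRET (VIPR II).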

T1 sequence (P13569 with tags, fused parts or gaps DEL508-508): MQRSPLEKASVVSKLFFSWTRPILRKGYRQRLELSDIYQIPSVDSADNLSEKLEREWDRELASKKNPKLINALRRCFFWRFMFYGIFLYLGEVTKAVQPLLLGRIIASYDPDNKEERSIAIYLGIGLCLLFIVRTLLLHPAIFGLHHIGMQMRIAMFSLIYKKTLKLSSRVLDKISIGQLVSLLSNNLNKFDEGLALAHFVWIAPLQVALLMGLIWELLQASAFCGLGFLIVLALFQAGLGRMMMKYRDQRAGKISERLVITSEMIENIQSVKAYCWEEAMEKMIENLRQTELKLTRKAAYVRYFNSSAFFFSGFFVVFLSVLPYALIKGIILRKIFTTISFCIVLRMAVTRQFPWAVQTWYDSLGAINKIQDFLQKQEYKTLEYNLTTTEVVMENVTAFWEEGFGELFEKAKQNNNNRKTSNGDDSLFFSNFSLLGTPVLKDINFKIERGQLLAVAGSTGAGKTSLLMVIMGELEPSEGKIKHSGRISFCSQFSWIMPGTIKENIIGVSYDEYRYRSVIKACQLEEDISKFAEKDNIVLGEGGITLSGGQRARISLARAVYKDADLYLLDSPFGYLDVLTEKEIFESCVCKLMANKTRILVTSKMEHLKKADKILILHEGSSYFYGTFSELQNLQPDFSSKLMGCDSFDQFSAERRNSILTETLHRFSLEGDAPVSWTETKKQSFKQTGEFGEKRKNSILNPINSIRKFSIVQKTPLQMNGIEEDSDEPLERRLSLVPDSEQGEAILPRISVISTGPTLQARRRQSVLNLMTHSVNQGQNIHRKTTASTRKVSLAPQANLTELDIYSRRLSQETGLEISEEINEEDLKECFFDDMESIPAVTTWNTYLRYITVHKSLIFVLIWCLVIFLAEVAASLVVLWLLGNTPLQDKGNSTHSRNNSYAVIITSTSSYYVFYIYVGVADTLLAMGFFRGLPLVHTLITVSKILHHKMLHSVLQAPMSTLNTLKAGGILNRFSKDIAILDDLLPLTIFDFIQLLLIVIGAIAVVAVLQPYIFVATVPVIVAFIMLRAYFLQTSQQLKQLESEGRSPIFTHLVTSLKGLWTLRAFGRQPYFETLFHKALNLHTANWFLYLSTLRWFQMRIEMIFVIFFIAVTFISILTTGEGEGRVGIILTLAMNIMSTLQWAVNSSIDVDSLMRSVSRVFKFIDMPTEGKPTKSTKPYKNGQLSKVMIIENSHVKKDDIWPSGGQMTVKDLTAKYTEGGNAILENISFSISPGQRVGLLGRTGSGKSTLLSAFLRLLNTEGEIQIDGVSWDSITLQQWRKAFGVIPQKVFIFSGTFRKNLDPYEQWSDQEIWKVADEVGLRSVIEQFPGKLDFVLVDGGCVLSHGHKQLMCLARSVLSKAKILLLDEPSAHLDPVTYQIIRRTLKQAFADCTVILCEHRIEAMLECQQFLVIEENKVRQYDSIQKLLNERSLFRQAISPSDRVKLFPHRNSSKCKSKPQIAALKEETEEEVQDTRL

With `COC(c1cnc(NC(=O)C2(c3ccc4c(c3)OCO4)CC2)s1)c1ccccc1Cl` (stereo not drawn) [Example 260], the “% Activity / % Efficacy (relative efficacy)” value is reported as “+++ (“+++” means>100%)” and the pEC50 (as a rule, −log10 of the EC50, conventionally taken in molar units) was greater than 5.00.

`CC(C)OC(c1cnc(NC(=O)C2(c3ccc4c(c3)OCO4)CC2)s1)c1ccccc1Cl` (stereo not drawn) [Example 261]: the “% Activity / % Efficacy (relative efficacy)” value is on record as “+++ (“+++” means>100%)” and the pEC50 was greater than 5.00.

For the compound `COc1ccc(C2(C(=O)Nc3ncc(Cc4ccncc4Cl)s3)CC2)cc1` [Example 262], the “% Activity / % Efficacy (relative efficacy)” value is on record as “+++ (“+++” means>100%)” and the pEC50 was greater than 5.00.

On to `COc1ccc(C2(C(=O)Nc3ncc(Cc4ncccc4OC)s3)CC2)cc1` [Example 263], for which the “% Activity / % Efficacy (relative efficacy)” value was “+++ (“+++” means>100%)” and the negative-log EC50 (pEC50) is greater than 5.00.

With `COc1ccc(C2(C(=O)Nc3ncc(Cc4ccc(F)cc4F)s3)CC2)cc1` [Example 264], the “% Activity / % Efficacy (relative efficacy)” value was “+++ (“+++” means>100%)” and the negative-log EC50 (pEC50) is greater than 5.00.

Consider `O=C(Nc1ncc(Cc2ccncc2Cl)s1)C1(c2ccc3c(c2)OCO3)CC1` [Example 265], for which the “% Activity / % Efficacy (relative efficacy)” value is reported as “+++ (“+++” means>100%)” and the negative-log EC50 (pEC50) was greater than 5.00.

Take `COc1cccnc1Cc1cnc(NC(=O)C2(c3ccc4c(c3)OCO4)CC2)s1` [Example 266]: the “% Activity / % Efficacy (relative efficacy)” value is “+++ (“+++” means>100%)” and the pEC50 was greater than 5.00.

In the case of `O=C(Nc1cnc(Cc2ccccc2Cl)s1)C1(c2ccc3c(c2)OCO3)CC1` [Example 267], the negative logarithm of the EC50 (pEC50) is greater than 5.00 and the Emax is greater than 100%.

Take `COc1ccc(C2(C(=O)Nc3cnc(Cc4ccccc4Cl)s3)CC2)cc1` [Example 270]: the “% Activity / % Efficacy (relative efficacy)” value is given as “++ (“++” means between 25% to 100%)” and the negative logarithm of the EC50 (pEC50) was greater than 5.00.

Turning to `COCCOC(c1cnc(NC(=O)C2(c3ccc4c(c3)OCO4)CC2)s1)c1ccccc1Cl` (stereo not drawn) [Example 273], the negative-log EC50 (pEC50) is greater than 5.00 and the Emax was greater than 100%.

Regarding `O=C(Nc1ncc(C(OCCCCO)c2ccccc2Cl)s1)C1(c2ccc3c(c2)OCO3)CC1` (stereo not drawn) [Example 275], the “% Activity / % Efficacy (relative efficacy)” value is recorded as “+ (“+” means<25%)” and the pEC50 is greater than 5.00.

On to `CCN(C)CCOC(c1cnc(NC(=O)C2(c3ccc4c(c3)OCO4)CC2)s1)c1ccccc1Cl` (stereo not drawn) [Example 276], for which the “% Activity / % Efficacy (relative efficacy)” value is listed as “++ (“++” means between 25% to 100%)” and the negative-log EC50 (pEC50) was greater than 5.00.

For the compound `O=C(Nc1ncc(C(OCCCCN2CCC(O)CC2)c2ccccc2Cl)s1)C1(c2ccc3c(c2)OCO3)CC1` (stereo not drawn) [Example 279], the “% Activity / % Efficacy (relative efficacy)” value is “+++ (“+++” means>100%)” and the pEC50 is greater than 5.00.

As to `COc1ccc(C2(C(=O)Nc3ncc(Cc4ccccc4C)s3)CC2)cc1` [Example 280], the “% Activity / % Efficacy (relative efficacy)” value is reported as “+++ (“+++” means>100%)” and the negative-log EC50 (pEC50) was greater than 5.00.

For `Cc1ccccc1Cc1cnc(NC(=O)C2(c3ccc4c(c3)OCO4)CC2)s1` [Example 281], the “% Activity / % Efficacy (relative efficacy)” value is listed as “+++ (“+++” means>100%)” and the pEC50 was greater than 5.00.

For `COc1ccc(C2(C(=O)Nc3ncc(Cc4ccc(F)cc4C)s3)CC2)cc1` [Example 282], the “% Activity / % Efficacy (relative efficacy)” value is “++ (“++” means between 25% to 100%)” and the pEC50 was greater than 5.00.

Turning to `Cc1cc(F)ccc1Cc1cnc(NC(=O)C2(c3ccc4c(c3)OCO4)CC2)s1` [Example 283], the “% Activity / % Efficacy (relative efficacy)” value was “++ (“++” means between 25% to 100%)” and the negative logarithm of the EC50 (pEC50) is greater than 5.00.

Regarding `O=C(Nc1nn(-c2ccccc2)cc1-c1cccs1)C1(c2ccc3c(c2)OCO3)CC1` [Example 286], the negative-log EC50 (pEC50) was 4.60 to 5.00 and the Emax fell in the range of 25 to 100%.

With `Cn1nc(-c2ccc(Cl)c(Cl)c2)cc1NC(=O)C1(c2ccc3c(c2)OCO3)CC1` [Example 287], the pEC50 was greater than 5.00 and the Emax is greater than 100%.

Turning to `Cc1csc(NC(=O)C2(c3ccc4c(c3)OCO4)CC2)c1C(N)=O` [Example 289], the pEC50 was greater than 5.00 and the Emax was in the range of 25 to 100%.

With `CC(C)(C)c1cc(NC(=O)C2(c3ccc4c(c3)OCO4)CC2)c(C(N)=O)s1` [Example 290], the negative-log EC50 (pEC50) is greater than 5.00 and the Emax is 25 to 100%.

Turning to `Cc1nn(-c2ccccc2)c(NC(=O)C2(c3ccc4c(c3)OCO4)CC2)c1-c1ccccc1` [Example 291], the negative-log EC50 (pEC50) was 4.60 to 5.00 and the Emax is 25 to 100%.

Turning to `COc1nonc1NC(=O)C1(c2ccc3c(c2)OCO3)CC1` [Example 292], the negative logarithm of the EC50 (pEC50) is 4.60 to 5.00 and the Emax lay in the range of 25 to 100%.

In the case of `O=C(Nc1nnc(-c2ccccc2)s1)C1(c2ccc3c(c2)OCO3)CC1` [Example 293], the pEC50 is 4.60 to 5.00 and the Emax was in the range of 25 to 100%.

On to `CC1CCc2c(sc(NC(=O)C3(c4ccc5c(c4)OCO5)CC3)c2C#N)C1` (stereo not drawn) [Example 296], for which the pEC50 was greater than 5.00 and the Emax is greater than 100%.

With `Cc1cc(NC(=O)C2(c3ccc4c(c3)OCO4)CC2)n(Cc2ccccc2)n1` [Example 297], the negative logarithm of the EC50 (pEC50) is 4.60 to 5.00 and the Emax lay within 25 to 100%.

For `O=C(Nc1ncc(-c2ccncc2)s1)C1(c2ccc3c(c2)OCO3)CC1` [Example 299], the negative-log EC50 (pEC50) was 4.60 to 5.00 and the Emax lay in the range of 25 to 100%.

Regarding `CCC(c1ccccc1)c1nnc(NC(=O)C2(c3ccc4c(c3)OCO4)CC2)s1` (stereo not drawn) [Example 301], the negative-log EC50 (pEC50) is greater than 5.00 and the Emax is greater than 100%.

As for `Cn1nnc2cc(C3(C(=O)Nc4ncc(Cc5ccccc5Cl)s4)CC3)ccc21` [Example 304], the pEC50 was greater than 5.00 and the Emax is greater than 100%.

For `O=C(Nc1ncc(Cc2ccccc2Cl)s1)C1(c2cccc(F)c2)CCCCC1` [Example 305], the negative logarithm of the EC50 (pEC50) was greater than 5.00 and the Emax was greater than 100%.

`O=C(Nc1ncc(Cc2ccccc2Cl)s1)C1(c2ccccc2F)CCCCC1` [Example 306]: the pEC50 is greater than 5.00 and the Emax is greater than 100%.

Consider `O=C(Nc1ncc(Cc2ccccc2Cl)s1)C1(c2ccc(-n3cncn3)cc2)CC1` [Example 307], for which the negative-log EC50 (pEC50) is greater than 5.00 and the Emax was greater than 100%.

As to `CS(=O)(=O)Nc1cccc(C2(C(=O)Nc3ncc(Cc4ccccc4Cl)s3)CC2)c1` [Example 308], the pEC50 is greater than 5.00 and the Emax lay in the range of 25 to 100%.

`CS(=O)(=O)c1ccc(C2(C(=O)Nc3ncc(Cc4ccccc4Cl)s3)CC2)cc1` [Example 309]: the pEC50 is greater than 5.00 and the Emax was in the range of 25 to 100%.

With `O=C(Nc1ncc(C(c2ccccc2Cl)N2CC[C@H](O)C2)s1)C1(c2ccc3c(c2)OCO3)CC1` (stereo partly drawn) [Example 310], the pEC50 was greater than 5.00 and the Emax is greater than 100%.

In the case of `O=C(Nc1ncc(C(c2ccccc2Cl)N2CCC(O)C2)s1)C1(c2ccc3c(c2)OCO3)CC1` (stereo not drawn) [Example 311], the pEC50 was greater than 5.00 and the Emax is greater than 100%.

Take `CN(C)CC(=O)Nc1ccc(C2(C(=O)Nc3ncc(Cc4ccccc4Cl)s3)CC2)cc1` [Example 312]: the negative-log EC50 (pEC50) is greater than 5.00 and the Emax lay within 25 to 100%.

For `O=C(Nc1ncc(Cc2ccccc2Cl)s1)C1(c2ccc(N3CCOCC3)cc2)CC1` [Example 313], the negative logarithm of the EC50 (pEC50) is 4.60 to 5.00 and the Emax was 25 to 100%.

On to `CN1CCN(c2cccc(C3(C(=O)Nc4ncc(Cc5ccccc5Cl)s4)CC3)c2)CC1` [Example 314], for which the pEC50 was greater than 5.00 and the Emax lay within 25 to 100%.
